Like-named read-outs stand apart in the source and are kept apart here.
How the values were obtained:
cyclin D1 = experiment: Cyclin D1 percentage degradation in Calu-1 cells (immunoblotting); type: cell-based; settings: 16 hours
In short: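 Cells were rinsed once in cold PBS and lysed in cold RIPA buffer containing protease and phosphatase inhibitors, with gentle agitation at 4° C. for 30 min. Lysates were spun at 13,000 rpm for 10 min at 4° C., protein was measured by BCA, and samples were boiled in Laemmli buffer at 99° C. for 5 min before SDS-PAGE immunoblotting.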

CDK4 = biological target: T1, CDK4 (Homo sapiens, UniProt P11802); experiment: CDK4 percentage degradation in Calu-1 cells (immunoblotting); type: cell-based; settings: for inhibition at 0.2 µM: read-out: CDK4 Degradation (200 nM); for inhibition at 10 µM: read-out: CDK4 Degradation (10 μM)
T1 construct: endogenous in cells; host or cells: Calu-1
In short: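 Cultured cells were rinsed once in cold PBS and lysed in cold RIPA buffer containing protease and phosphatase inhibitors, with gentle agitation at 4° C. for 30 min. Lysates were centrifuged at 13,000 rpm for 10 min at 4° C., and protein was quantified by BCA. Samples were then separated by SDS-PAGE, detected with ECL, and the CDK4 bands quantified in Image Lab.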

T1 sequence (P11802 2-303 limits assumed): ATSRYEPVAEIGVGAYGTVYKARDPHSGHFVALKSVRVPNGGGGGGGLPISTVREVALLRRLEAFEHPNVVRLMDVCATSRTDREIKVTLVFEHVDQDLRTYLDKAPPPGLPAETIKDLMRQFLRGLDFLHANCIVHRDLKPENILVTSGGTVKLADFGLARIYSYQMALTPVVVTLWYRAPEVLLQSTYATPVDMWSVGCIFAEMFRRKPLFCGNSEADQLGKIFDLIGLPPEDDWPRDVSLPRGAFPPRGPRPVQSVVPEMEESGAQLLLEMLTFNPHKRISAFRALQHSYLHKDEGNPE
T1 sequence (P24385 whole entry partner): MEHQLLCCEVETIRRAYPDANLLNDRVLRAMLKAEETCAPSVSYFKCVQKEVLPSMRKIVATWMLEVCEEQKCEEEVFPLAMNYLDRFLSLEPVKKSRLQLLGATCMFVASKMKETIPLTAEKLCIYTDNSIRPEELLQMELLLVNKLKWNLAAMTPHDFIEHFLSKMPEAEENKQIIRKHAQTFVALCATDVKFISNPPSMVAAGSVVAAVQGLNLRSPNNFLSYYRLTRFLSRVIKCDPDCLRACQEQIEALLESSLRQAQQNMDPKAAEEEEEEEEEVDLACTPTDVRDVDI
T1 sequence (Q16531 2-1140 limits assumed, further chain): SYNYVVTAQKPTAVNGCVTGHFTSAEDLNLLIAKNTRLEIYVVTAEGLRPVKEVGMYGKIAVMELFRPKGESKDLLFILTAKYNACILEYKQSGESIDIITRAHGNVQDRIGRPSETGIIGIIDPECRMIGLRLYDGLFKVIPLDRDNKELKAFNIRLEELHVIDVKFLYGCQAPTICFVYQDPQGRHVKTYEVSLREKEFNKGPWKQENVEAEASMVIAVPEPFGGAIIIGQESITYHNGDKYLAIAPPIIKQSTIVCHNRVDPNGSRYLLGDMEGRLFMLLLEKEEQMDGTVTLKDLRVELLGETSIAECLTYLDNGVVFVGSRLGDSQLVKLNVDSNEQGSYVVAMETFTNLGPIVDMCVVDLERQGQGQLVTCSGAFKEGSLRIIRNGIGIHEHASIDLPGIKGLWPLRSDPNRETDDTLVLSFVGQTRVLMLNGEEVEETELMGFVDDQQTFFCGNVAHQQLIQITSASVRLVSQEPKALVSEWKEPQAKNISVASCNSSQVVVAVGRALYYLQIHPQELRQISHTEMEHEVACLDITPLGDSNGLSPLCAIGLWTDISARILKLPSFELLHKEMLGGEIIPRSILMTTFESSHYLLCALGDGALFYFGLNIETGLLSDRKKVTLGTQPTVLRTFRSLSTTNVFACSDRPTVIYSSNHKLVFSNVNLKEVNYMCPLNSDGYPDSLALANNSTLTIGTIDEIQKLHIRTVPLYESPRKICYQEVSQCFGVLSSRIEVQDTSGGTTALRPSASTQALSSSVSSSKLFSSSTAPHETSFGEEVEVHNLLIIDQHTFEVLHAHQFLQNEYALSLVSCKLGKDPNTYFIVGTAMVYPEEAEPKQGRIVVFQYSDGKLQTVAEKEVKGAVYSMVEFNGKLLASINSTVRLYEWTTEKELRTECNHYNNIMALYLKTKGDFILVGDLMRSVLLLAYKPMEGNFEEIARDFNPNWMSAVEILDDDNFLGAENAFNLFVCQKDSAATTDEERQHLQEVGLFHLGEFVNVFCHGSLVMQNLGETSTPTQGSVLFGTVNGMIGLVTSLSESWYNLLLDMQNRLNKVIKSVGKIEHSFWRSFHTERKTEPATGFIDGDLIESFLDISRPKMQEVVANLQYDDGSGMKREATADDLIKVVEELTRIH

| Compound | CyclinD1 Degradation (200 nM) (cyclin D1) | inhibition at 0.2 µM (CDK4; Calu-1 cells, 200 nM, 16 hours) | inhibition at 0.2 µM (CDK4; Calu-1, 16 h) | CyclinD1 Degradation (10 μM) (cyclin D1) | inhibition at 10 µM (CDK4; Calu-1 cells, 16 hours) |
| --- | --- | --- | --- | --- | --- |
| CC(=O)c1c(C)c2cnc(Nc3ccc(N4CCN(CC(=O)NCCCCCCCCCNc5ccccc5C(=O)Nc5nc(C)c(C)s5)CC4)cn3)nc2n(C2CCCC2)c1=O [CPD-268, 2-((9-(2-(4-(6-((6-Acetyl-8-cyclopentyl-5-methyl-7-oxo-7,8-dihydropyrido[2,3-d]pyrimidin-2-yl)amino)pyridin-3-yl)piperazin-1-yl)acetamido)nonyl)amino)-N-(4,5-dimethylthiazol-2-yl)benzamide] | A (protein percentage degradation >=80%) | 50 to 80% |  |  |  |
| CC(=O)c1c(C)c2cnc(Nc3ccc(N4CCN(CCCCCCCCCCCC(=O)Nc5ccccc5C(=O)Nc5nc(C)c(C)s5)CC4)cn3)nc2n(C2CCCC2)c1=O [CPD-177, 2-(12-(4-(6-((6-Acetyl-8-cyclopentyl-5-methyl-7-oxo-7,8-dihydropyrido[2,3-d]pyrimidin-2-yl)amino)pyridin-3-yl)piperazin-1-yl)dodecanamido)-N-(4,5-dimethylthiazol-2-yl)benzamide] | D (protein percentage degradation <30%) |  | < 30% |  |  |
| Cc1nc(NC(=O)c2ccccc2NC(=O)CCCCCCNC(=O)CN2CCN(c3ccc(Nc4ncc5cc6n(c5n4)C4(CCCCC4)CNC6=O)nc3)CC2)sc1C [CPD-319, N-(4,5-Dimethylthiazol-2-yl)-2-(7-(2-(4-(6-((6′-oxo-7′,8′-dihydro-6′H-spiro[cyclohexane-1,9′-pyrazino[1′,2′:1,5]pyrrolo[2,3-d]pyrimidin]-2′-yl)amino)pyridin-3-yl)piperazin-1-yl)acetamido)heptanamido)benzamide] |  |  |  | A (protein percentage degradation >= 80%) | 50 to 80% |
| Cc1nc(NC(=O)c2ccccc2NC(=O)CCCCCNC(=O)CN2CCN(c3ccc(Nc4ncc(F)c(-c5cc(F)c6nc(C)n(C(C)C)c6c5)n4)nc3)CC2)sc1C [CPD-304, N-(4,5-Dimethylthiazol-2-yl)-2-(6-(2-(4-(6-((5-fluoro-4-(4-fluoro-1-isopropyl-2-methyl-1H-benzo[d]imidazol-6-yl)pyrimidin-2-yl)amino)pyridin-3-yl)piperazin-1-yl)acetamido)hexanamido)benzamide] |  |  |  | D (protein percentage degradation < 30%) | < 30% |
| CC(=O)c1c(C)c2cnc(Nc3ccc(N4CCN(CC(=O)NCCOCCOCCC(=O)Nc5cc(Cl)ccc5C(=O)Nc5nc(C)c(C)s5)CC4)cn3)nc2n(C2CCCC2)c1=O [CPD-140, 2-(3-(2-(2-(2-(4-(6-((6-Acetyl-8-cyclopentyl-5-methyl-7-oxo-7,8-dihydropyrido[2,3-d]pyrimidin-2-yl)amino)pyridin-3-yl)piperazin-1-yl)acetamido)ethoxy)ethoxy)propanamido)-4-chloro-N-(4,5-dimethylthiazol-2-yl)benzamide] | A (protein percentage degradation >=80%) | 50 to 80% |  |  |  |
| CC(=O)c1c(C)c2cnc(Nc3ccc(N4CCN(C(=O)CCOCCOCCOCCOCCOCCNc5ccc(C)c(C(=O)Nc6nc(C)c(C)s6)c5)CC4)cn3)nc2n(C2CCCC2)c1=O [CPD-134, 5-((18-(4-(6-((6-Acetyl-8-cyclopentyl-5-methyl-7-oxo-7,8-dihydropyrido[2,3-d]pyrimidin-2-yl)amino)pyridin-3-yl)piperazin-1-yl)-18-oxo-3,6,9,12,15-pentaoxaoctadecyl)amino)-N-(4,5-dimethylthiazol-2-yl)-2-methylbenzamide] | D (protein percentage degradation <30%) |  | < 30% |  |  |
| CC(=O)c1c(C)c2cnc(Nc3ccc(N4CCN(CC(=O)NCCCCCCNc5cccc(C(=O)Nc6nc(C)c(C)s6)c5C)CC4)cn3)nc2n(C2CCCC2)c1=O [CPD-101, 3-((6-(2-(4-(6-((6-Acetyl-8-cyclopentyl-5-methyl-7-oxo-7,8-dihydropyrido[2,3-d]pyrimidin-2-yl)amino)pyridin-3-yl)piperazin-1-yl)acetamido)hexyl)amino)-N-(4,5-dimethylthiazol-2-yl)-2-methylbenzamide] | A (protein percentage degradation >=80%) | 50 to 80% |  |  |  |
| CC(=O)c1c(C)c2cnc(Nc3ccc(N4CCN(CC(=O)NCCOCCOCCNC(=O)COc5ccc(C(=O)Nc6ncc(C)s6)c(C)c5)CC4)cn3)nc2n(C2CCCC2)c1=O [CPD-039, 4-((14-(4-(6-((6-Acetyl-8-cyclopentyl-5-methyl-7-oxo-7,8-dihydropyrido[2,3-d]pyrimidin-2-yl)amino)pyridin-3-yl)piperazin-1-yl)-2,13-dioxo-6,9-dioxa-3,12-diazatetradecyl)oxy)-2-methyl-N-(5-methylthiazol-2-yl)benzamide] | D (protein percentage degradation <30%) | < 30% |  |  |  |
| CC(=O)c1c(C)c2cnc(Nc3ccc(N4CCN(CC(=O)NCCOCCOCCC(=O)Nc5ccccc5C(=O)Nc5ccc(C)nc5)CC4)cn3)nc2n(C2CCCC2)c1=O [CPD-060, 2-(3-(2-(2-(2-(4-(6-((6-Acetyl-8-cyclopentyl-5-methyl-7-oxo-7,8-dihydropyrido[2,3-d]pyrimidin-2-yl)amino)pyridin-3-yl)piperazin-1-yl)acetamido)ethoxy)ethoxy)propanamido)-N-(6-methylpyridin-3-yl)benzamide] | A (protein percentage degradation >=80%) | 50 to 80% |  |  |  |
| CC(=O)c1c(C)c2cnc(Nc3ccc(N4CCN(CC(=O)NCCOCCOCCOCCOCCOCCOCCNc5ccc(C)c(C(=O)Nc6nc(C)c(C)s6)c5)CC4)cn3)nc2n(C2CCCC2)c1=O [CPD-132, 5-((1-(4-(6-((6-Acetyl-8-cyclopentyl-5-methyl-7-oxo-7,8-dihydropyrido[2,3-d]pyrimidin-2-yl)amino)pyridin-3-yl)piperazin-1-yl)-2-oxo-6,9,12,15,18,21-hexaoxa-3-azatricosan-23-yl)amino)-N-(4,5-dimethylthiazol-2-yl)-2-methylbenzamide] | A (protein percentage degradation >=80%) | > 80% |  |  |  |
| CC(=O)c1c(C)c2cnc(Nc3ccc(N4CCN(CC(=O)NCCOCCOCCOCCOCCNC(=O)CNc5ccc(C(=O)Nc6ncc(C)s6)c(C)c5)CC4)cn3)nc2n(C2CCCC2)c1=O [CPD-013, 4-((20-(4-(6-((6-Acetyl-8-cyclopentyl-5-methyl-7-oxo-7,8-dihydropyrido[2,3-d]pyrimidin-2-yl)amino)pyridin-3-yl)piperazin-1-yl)-2,19-dioxo-6,9,12,15-tetraoxa-3,18-diazaicosyl)amino)-2-methyl-N-(5-methylthiazol-2-yl)benzamide] | D (protein percentage degradation <30%) | < 30% |  |  |  |
| CC(=O)c1c(C)c2cnc(Nc3ccc(N4CCN(CC(=O)NCCOCCOCCC(=O)Nc5ccccc5C(=O)Nc5ccc(F)cn5)CC4)cn3)nc2n(C2CCCC2)c1=O [CPD-081, 2-(3-(2-(2-(2-(4-(6-((6-Acetyl-8-cyclopentyl-5-methyl-7-oxo-7,8-dihydropyrido[2,3-d]pyrimidin-2-yl)amino)pyridin-3-yl)piperazin-1-yl)acetamido)ethoxy)ethoxy)propanamido)-N-(5-fluoropyridin-2-yl)benzamide] | A (protein percentage degradation >=80%) | > 80% |  |  |  |
| CC(=O)c1c(C)c2cnc(Nc3ccc(N4CCN(CC(=O)NCCCCCCCNc5ccc(C)c(C(=O)Nc6nc(C)c(C)s6)c5)CC4)cn3)nc2n(C2CCCC2)c1=O [CPD-117, 5-((7-(2-(4-(6-((6-Acetyl-8-cyclopentyl-5-methyl-7-oxo-7,8-dihydropyrido[2,3-d]pyrimidin-2-yl)amino)pyridin-3-yl)piperazin-1-yl)acetamido)heptyl)amino)-N-(4,5-dimethylthiazol-2-yl)-2-methylbenzamide] | C (protein percentage degradation <50%, and >=30%) | 30 to 50% |  |  |  |
| CC(=O)c1c(C)c2cnc(Nc3ccc(N4CCN(CC(=O)NCCOCCOCCC(=O)Nc5ccccc5C(=O)Nc5nc(C6CCNCC6)c(C)s5)CC4)cn3)nc2n(C2CCCC2)c1=O [CPD-072, 2-(3-(2-(2-(2-(4-(6-((6-Acetyl-8-cyclopentyl-5-methyl-7-oxo-7,8-dihydropyrido[2,3-d]pyrimidin-2-yl)amino)pyridin-3-yl)piperazin-1-yl)acetamido)ethoxy)ethoxy)propanamido)-N-(5-methyl-4-(piperidin-4-yl)thiazol-2-yl)benzamide] | D (protein percentage degradation <30%) | 50 to 80% |  |  |  |
| CNc1ccc(NC(=O)CCOCCOCCNC(=O)CN2CCN(c3ccc(Nc4ncc5c(C)c(C(C)=O)c(=O)n(C6CCCC6)c5n4)nc3)CC2)c(C(=O)Nc2nc(C)c(C)s2)c1 [CPD-150, 2-(3-(2-(2-(2-(4-(6-((6-Acetyl-8-cyclopentyl-5-methyl-7-oxo-7,8-dihydropyrido[2,3-d]pyrimidin-2-yl)amino)pyridin-3-yl)piperazin-1-yl)acetamido)ethoxy)ethoxy)propanamido)-N-(4,5-dimethylthiazol-2-yl)-5-(methylamino)benzamide] | A (protein percentage degradation >=80%) | 50 to 80% |  |  |  |
| Cc1nc(NC(=O)c2ccccc2NC(=O)CCOCCOCCOCCOCCOCCNC(=O)CN2CCN(c3ccc(Nc4ncc(F)c(-c5cc(F)c6nc(C)n(C(C)C)c6c5)n4)nc3)CC2)sc1C [CPD-312, N-(4,5-Dimethylthiazol-2-yl)-2-(1-(4-(6-((5-fluoro-4-(4-fluoro-1-isopropyl-2-methyl-1H-benzo[d]imidazol-6-yl)pyrimidin-2-yl)amino)pyridin-3-yl)piperazin-1-yl)-2-oxo-6,9,12,15,18-pentaoxa-3-azahenicosan-21-amido)benzamide] |  |  |  | A (protein percentage degradation >= 80%) | < 30% |
